Experimental data reported in ChEMBL document CHEMBL1201862, “PubChem BioAssay data set” (2004).
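Following 48 hours of exposure in 96-well plates, responses at five concentrations were used to interpolate endpoints linearly. GI50: concentration for 50% inhibition of growth.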 Active and inactive are the calls of the source. Cut-off read from the data, not from the text of the source: active = GI50 up to about 1.1 µM and inactive = higher.

What was measured:
Test in all cases: NCI anticancer screen, dose series, 48 h
A498 = test system: A498
A549 = test system: A549
CAKI-1 = test system: CAKI-1
CCRF-CEM = test system: CCRF-CEM
HCT-15 = test system: HCT-15
HOP-62 = test system: HOP-62
HT-29 = test system: HT-29
K562 = test system: K562
MOLT-4 = test system: MOLT-4
NCI-H23 = test system: NCI-H23
NCI-H460 = test system: NCI-H460
NCI/ADR-RES = test system: NCI/ADR-RES
OVCAR-4 = test system: OVCAR-4
SF-268 = test system: SF-268
SF-539 = test system: SF-539
SK-MEL-28 = test system: SK-MEL-28
SNB-75 = test system: SNB-75
UACC-257 = test system: UACC-257
UACC-62 = test system: UACC-62
UO-31 = test system: UO-31

Structure (SMILES) | GI50 (A498) | GI50 (A549) | GI50 (CAKI-1) | GI50 (CCRF-CEM) | GI50 (HCT-15) [µM] | GI50 (HOP-62) | GI50 (HT-29) | GI50 (K562) | GI50 (MOLT-4) | GI50 (NCI-H23) | GI50 (NCI-H460) | GI50 (NCI/ADR-RES) | GI50 (OVCAR-4) | GI50 (SF-268) | GI50 (SF-539) | GI50 (SK-MEL-28) | GI50 (SNB-75) | GI50 (UACC-257) | GI50 (UACC-62) | GI50 (UO-31)
c1ccc2cc3c(cc2c1)OP1(Oc2cccc4cccnc24)(O3)Oc2cc3ccccc3cc2O1 | 18.2 µM (inactive) | 5.9 µM (inactive) | 4.88 µM (inactive) | 0.984 µM (active) | 3.05 | 21 µM (inactive) | 2.9 µM (inactive) | 2.04 µM (inactive) | 1.57 µM (inactive) | 2.71 µM (inactive) | 2.52 µM (inactive) | 1.28 µM (inactive) | 3.61 µM (inactive) | 4.81 µM (inactive) | 6.15 µM (inactive) | 15.8 µM (inactive) | 18.6 µM (inactive) | 2.69 µM (inactive) | 3.05 µM (inactive) | 5.01 µM (inactive)
CSCSCC(N)CO.Cc1[nH]c(=O)[nH]c(=O)c1/C=C/C(=O)O | > 625 µM (inactive) | > 625 µM (inactive) | 624 µM (inactive) | > 625 µM (inactive) | > 625 | > 625 µM (inactive) | > 625 µM (inactive) | > 625 µM (inactive) | 590 µM (inactive) | > 625 µM (inactive) | > 625 µM (inactive) | > 625 µM (inactive) | > 625 µM (inactive) | > 625 µM (inactive) | > 625 µM (inactive) | > 625 µM (inactive) | 447 µM (inactive) | > 625 µM (inactive) | > 625 µM (inactive) | > 625 µM (inactive)
CCOC(=O)c1ccc(Nc2cnc3cc(C(F)(F)F)ccc3n2)cc1 | > 100 µM (inactive) | > 100 µM (inactive) | > 100 µM (inactive) | > 100 µM (inactive) | > 100 | > 100 µM (inactive) | > 100 µM (inactive) | > 100 µM (inactive) | > 100 µM (inactive) | > 100 µM (inactive) | > 100 µM (inactive) | > 100 µM (inactive) | > 100 µM (inactive) | > 100 µM (inactive) | 79.6 µM (inactive) | 85.9 µM (inactive) | 44.9 µM (inactive) | > 100 µM (inactive) | > 100 µM (inactive) | > 100 µM (inactive)
BrC1=CN2C[n+]3cc(Br)c4ccccc4c3N=C2c2ccccc21 | 24.9 µM (inactive) | 46.3 µM (inactive) | 14 µM (inactive) | 10.7 µM (inactive) | 58.6 | 1.4 µM (inactive) | 11.8 µM (inactive) | 6.34 µM (inactive) | 11 µM (inactive) | 21.1 µM (inactive) | 13.8 µM (inactive) | > 100 µM (inactive) | 7.76 µM (inactive) | 8.55 µM (inactive) | 11.7 µM (inactive) | 2.26 µM (inactive) | 2.92 µM (inactive) | 22 µM (inactive) | 5.58 µM (inactive) | 34.9 µM (inactive)
O=NN(CCCl)C(=O)NCCCl [CARMUSTINE] | 102 µM (inactive) | 103 µM (inactive) | 71.9 µM (inactive) | 18.7 µM (inactive) | 64.6 | 97.3 µM (inactive) | 79.3 µM (inactive) | 45.8 µM (inactive) | 33.5 µM (inactive) | 88.1 µM (inactive) | 52.5 µM (inactive) | 94.6 µM (inactive) | 87.9 µM (inactive) | 38.6 µM (inactive) | 44.8 µM (inactive) | 81.5 µM (inactive) | 52.2 µM (inactive) | 75.5 µM (inactive) | 23.8 µM (inactive) | 98.2 µM (inactive)
